Results published in patent publication US20140088114A1, “FUSED BICYCLIC KINASE INHIBITORS” (OSI Pharmaceuticals ,LLC, priority 2011, published 2014).

Molecular target: T1, c-MET (Homo sapiens, UniProt P08581)
T1 construct: endogenous in cells; host or cells: MKN45
Assay: MET cell mechanistic assay (MKN45), phosphorylated MET ELISA
Format: cell-based
Details: MKN45 cell line, 4 hours incubation, inhibition of phosphorylated MET, at least duplicate experiments; read-out: MET mech IC50
Experimental: The cellular activity of the compounds of the present invention against c-MET may be determined by the following procedure. MKN45 cells were plated in Falcon 3072 96-well plates in growth media (RPMI, 10% FBS, 1% L-glutamine) at a density of 5000 cells/well and incubated at 37° C., 5% CO2 overnight. The following day, one-tenth volume of a 10× concentration of compounds was added to the wells in a 6-point dilution series. The dilutions series was composed of an initial 1:5 dilution in DMSO, followed by a 1:10 dilution in growth media, for a final DMSO concentration on cells of 0.5%. Control wells were treated with 0.5% DMSO. The typical range of dilution was 10 μM to 3 nM. Once compound was added to the cells, plates were incubated for 4 hours at 37° C., 5% CO2. Plates were then washed in PBS, and lysed in triton-based lysis buffer. Lysates were transferred to a precoated capture plate made by Biosource (Cat #KHO0281). The phosphorylated MET levels were measured by incubating with a rabbit polyclonal antibody against phosphorylated MET ([pYpYpY1230/1234/1235]) followed by an anti-rabbit antibody conjugated to HRP. Signal was measured on a Wallac Victor plate reader at 450 nm. The DMSO signal of the control wells was defined as 100% and the percent of inhibition of phosphorylated MET was expressed as percent of control. IC50 values were determined from the percent of control data using a standard four-parameter model.
The IC50 values of exemplary compounds of the present invention determined in a MET cell mechanistic assay using the MKN45 cell line according to the procedures described herein in at least duplicate experiments are abbreviated as follows and are shown in Table 1: A, IC50≦0.03 μM; B, 0.03 μM<IC50≦0.1 μM; C, 0.1 μM<IC50≦1 μM; D, 1 μM<IC50≦3 μM; ND, not determined. The Example # of Table 1 corresponds to the compound Example number as illustrated in the Examples section. […]

T1 sequence (P08581 25-1390): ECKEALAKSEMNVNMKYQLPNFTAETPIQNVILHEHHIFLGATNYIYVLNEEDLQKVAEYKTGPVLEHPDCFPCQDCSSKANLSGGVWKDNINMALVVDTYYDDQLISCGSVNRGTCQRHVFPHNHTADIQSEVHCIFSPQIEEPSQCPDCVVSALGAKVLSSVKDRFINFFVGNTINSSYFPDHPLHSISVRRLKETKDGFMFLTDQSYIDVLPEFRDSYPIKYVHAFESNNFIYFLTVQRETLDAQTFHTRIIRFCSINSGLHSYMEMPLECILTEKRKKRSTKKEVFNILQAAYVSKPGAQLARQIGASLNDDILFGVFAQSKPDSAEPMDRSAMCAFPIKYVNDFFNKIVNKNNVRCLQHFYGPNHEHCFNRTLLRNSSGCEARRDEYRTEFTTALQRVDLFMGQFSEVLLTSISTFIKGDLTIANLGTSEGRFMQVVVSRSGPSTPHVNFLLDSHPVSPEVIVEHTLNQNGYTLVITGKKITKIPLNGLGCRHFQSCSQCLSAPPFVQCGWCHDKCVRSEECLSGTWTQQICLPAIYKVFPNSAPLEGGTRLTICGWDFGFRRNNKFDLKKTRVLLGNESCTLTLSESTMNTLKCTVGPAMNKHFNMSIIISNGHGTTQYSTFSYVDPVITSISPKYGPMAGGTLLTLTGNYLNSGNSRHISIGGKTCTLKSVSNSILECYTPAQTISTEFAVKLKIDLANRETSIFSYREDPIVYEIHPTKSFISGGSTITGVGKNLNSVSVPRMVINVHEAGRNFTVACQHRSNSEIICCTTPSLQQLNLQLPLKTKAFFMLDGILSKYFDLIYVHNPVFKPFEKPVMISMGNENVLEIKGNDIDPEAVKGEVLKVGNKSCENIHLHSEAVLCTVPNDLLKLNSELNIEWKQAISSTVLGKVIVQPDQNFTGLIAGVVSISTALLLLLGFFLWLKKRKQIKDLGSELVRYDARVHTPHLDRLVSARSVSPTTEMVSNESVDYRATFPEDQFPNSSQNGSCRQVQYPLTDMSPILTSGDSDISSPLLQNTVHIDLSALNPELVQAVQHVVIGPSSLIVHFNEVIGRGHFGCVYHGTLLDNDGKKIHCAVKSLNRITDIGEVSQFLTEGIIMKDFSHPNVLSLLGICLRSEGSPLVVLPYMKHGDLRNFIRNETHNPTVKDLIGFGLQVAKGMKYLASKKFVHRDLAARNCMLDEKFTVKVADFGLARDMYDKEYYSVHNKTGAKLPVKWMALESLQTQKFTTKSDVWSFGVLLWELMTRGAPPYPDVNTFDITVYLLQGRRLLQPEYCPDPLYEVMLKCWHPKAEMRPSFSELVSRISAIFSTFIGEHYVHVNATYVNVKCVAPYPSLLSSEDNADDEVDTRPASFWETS

| IC50 [µM] | SMILES |
| --- | --- |
| ≤ 0.03 | COc1ccc(F)c(Cl)c1[C@@H](CF)c1c[nH]c2ncc(-c3cnn([C@H]4CC[C@H](O)CC4)c3)cc12 [Example 3, trans-4-(4-{3-[(1S)-1-(2-chloro-3-fluoro-6-methoxyphenyl)-2-fluoroethyl]-1H-pyrrolo[2,3-b]pyridin-5-yl}-1H-pyrazol-1-yl)cyclohexanol] |
| 0.1 to 1 | O[C@H]1CC[C@H](n2cc(-c3cnc4[nH]cc([C@@H](CF)c5c(OC(F)F)ccc(F)c5Cl)c4c3)cn2)CC1 [Example 4, trans-4-[4-(3-{(1R)-1-[2-Chloro-6-(difluoromethoxy)-3-fluorophenyl]-2-fluoroethyl}-1H-pyrrolo[2,3-b]pyridin-5-yl)-1H-pyrazol-1-yl]cyclohexanol] |
| ≤ 0.03 | O[C@H]1CC[C@H](n2cc(-c3cnc4[nH]cc([C@H](CF)c5c(OC(F)F)ccc(F)c5Cl)c4c3)cn2)CC1 [Example 5, trans-4-[4-(3-{(1S)-1-[2-Chloro-6-(difluoromethoxy)-3-fluorophenyl]-2-fluoroethyl}-1H-pyrrolo[2,3-b]pyridin-5-yl)-1H-pyrazol-1-yl]cyclohexanol] |
